From PMC6052345, “Functional Analysis of the Chemosensory Protein MsepCSP8 From the Oriental Armyworm Mythimna separata” (Frontiers in Physiology, 2018)
Like-named read-outs stand apart in the source and are kept apart here.

How the values were obtained:
Mythimna separata [1] = assay: Y-tube olfactometer bioassay (before RNAi); assay type: in vivo; conditions: for behavioral response in words: male and female moths; for behavioral response (attraction) of females: 3-day-old female moths; for behavioral response (attraction) of females / behavioral response (attraction) of males: 10 μl volatile vs liquid paraffin; for behavioral response (attraction) of males: 3-day-old male moths
Description: Mythimna separata behavioral responses were examined by olfactometer bioassays ([Cao et al., 2015]) performed in a glass Y-tube (base = 4.0 cm diameter by 25 cm length, arms = 3.0 cm diameter by 26 cm length) using 10 different volatile compounds (Sigma-Aldrich).
Air entering the tube was passed through activated charcoal for filtration and humidified using deionised water. Filtered air was split between two chambers; one chamber containing liquid paraffin (used as control) and the other containing the test volatile. Each chamber was connected to one arm of the Y-tube. Airflow was kept constant at 6.0 l min^-1 throughout the experiment using an inline flow meter (Gilmont Instr., Barnant Co., Barrington, IL, United States). Orange light was used for this experiment. The whole experiment was conducted in a dark room, and the relative humidity and temperature were maintained at 70 ± 5% and 25 ± 1°C, respectively. A 10 μl of volatile compound was applied to 10 mm × 10 mm filter papers (Whatman No. 1) that was placed in the chamber connected to one arm of the Y-tube. A separate Y-tube was used for male and female moths.
To perform bioassays, a 3-day-old moth, either male or female, was released in the base of the Y-tube. Each insect was given 10 min to respond to the treatment, and the number of moths showing attraction, repulsion or no response was counted. Approximately 30 min before onset of the trial, male and female adults were placed into separate glass tubes (50 ml) and covered with a cotton plug to avoid exposure to tested volatiles. In total, 60 adults (30 male and 30 female) were tested per volatile compound, and χ^2 tests were applied to evaluate the number of M. separata individuals attracted to or repelled by volatiles.

MsepCSP8 = MsepCSP8 (Mythimna separata, UniProt A0A1V1WC03); assay: Fluorescence competitive binding assay with 1-NPN as fluorescent probe; conditions: for IC50: displacement of 1-NPN; for Ki: calculated from IC50; for binding affinity to MsepCSP8 in words: discussion of Table 1, pH not stated; for Kd: dissociation constant, saturation and Scatchard plot
Sequence of MsepCSP8 (A0A1V1WC03 entry or part of it): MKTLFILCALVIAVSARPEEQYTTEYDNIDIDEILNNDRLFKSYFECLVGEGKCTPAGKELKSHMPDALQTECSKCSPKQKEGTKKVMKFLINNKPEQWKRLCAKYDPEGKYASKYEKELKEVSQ
Description: The expressed protein was obtained in soluble form in the supernatant, and purification was accomplished using a Ni affinity chromatography column (GE Healthcare, Uppsala, Sweden). Bound protein was eluted by digestion with recombinant bovine enterokinase at 26°C for 15 h to remove the His-tag. Expression and purification were verified by 15% sodium dodecyl sulfate-polyacrylamide gel electrophoresis (SDS-PAGE), and protein concentration was measured as described by [Cao et al. (2017)]. Dialysis of purified protein was carried out in 30 mM Tris-HCl buffer [Tris(hydroxymethyl)aminomethane] at pH 7.4 and pH 5.0 before fluorescence binding assays, and protein was stored at -80°C until use.
Fluorescence competitive binding assays were performed to determine the binding affinity of MsepCSP8 for 56 ligands using N-phenyl-1-naphthylamine (1-NPN) as a fluorescent probe. Stock solutions of ligands were prepared in spectrophotometric-grade methanol. […] Mixtures of 1-NPN and protein were excited at 337 nm wavelength, and emission spectra were recorded from 360 to 600 nm using a fluorescence spectrophotometer (RF-5301PC Shimadzu, Kyoto, Japan). Binding of selected ligands with MsepCSP8 (1:1 protein:ligand stoichiometry) was evaluated using 1-NPN as a fluorescent probe, with the final concentration of the product ranging from 0 to 20 μM. […] Three independent measurements were made for all experiments. The binding affinity (Ki) of MsepCSP8 for all tested ligands was calculated based on IC50 values as follows:
Ki=IC50/(1 + [1−NPN]/K1–NPN)
where [1-NPN] is the free concentration of 1-NPN, and K1-NPN is the dissociation constant of the complex of MsepCSP8 and 1-NPN.

Mythimna separata [2] = assay: Y-tube olfactometer bioassay after dsMsepCSP8 injection; assay type: in vivo; conditions: males and females, 3 days post-eclosion
Description: The dsRNA (500 nl of 10 ng nl^-1) was injected into 3rd and 4th abdominal segment of 7-day old pupae using a microinjector (World Precision Instruments Inc., Sarasota, FL, United States) under a microscope. After injection, pupae were kept in petri dishes until eclosion at 25 ± 1°C and 70 ± 5% relative humidity. Three treatments were set up for RNAi consisting of non-injected (controls), dsGFP-injected and dsRNA-injected (dsMsepCSP8) groups. After eclosion, adults from each treatment were kept in separate containers. Three individuals of each sex from all three treatments were taken at 1, 2, 3, 4, and 5 days post-eclosion for RNAi analysis. RT-qPCR was performed using the method described above.
Y-tube bioassays were performed both before and after RNAi application to confirm the MsepCSP8 gene silencing effect. Three treatments consisting of dsGFP-injected, dsRNA-injected (dsMsepCSP8), and controls were tested on both 3-day old male and female moths.

Compound | IC50 (MsepCSP8; IC50, pH 5.0) [µM] | IC50 (MsepCSP8; IC50, pH 7.4) [µM] | Ki (MsepCSP8; Ki, pH 5.0) [µM] | Ki (MsepCSP8; Ki, pH 7.4) [µM] | binding affinity to MsepCSP8 in words (MsepCSP8) | other results
C=CC(O)CC (stereo not drawn) [1-Penten-3-ol] | 22.2 | 9.27 | 16.6 | 6.5 | bound strongly | behavioral response in words (Mythimna separata [1]): distinct preference
CC1=CCC(=C(C)C)CC1 [Terpinolene] | 27 | 8.82 | 20.1 | 6.19 | high binding affinities | behavioral responses of adults after dsMsepCSP8 injection (Mythimna separata [2]): not significantly affect; behavioral response (attraction) of females (Mythimna separata [1]): 80%; behavioral response (attraction) of males (Mythimna separata [1]): 90%
CCCCCC=O [Hexanal] |  |  |  |  |  | behavioral responses of adults after dsMsepCSP8 injection (Mythimna separata [2]): not significantly affect; behavioral response (attraction) of females (Mythimna separata [1]): 73.33%; behavioral response (attraction) of males (Mythimna separata [1]): 70%
OC1CCCCC1 [Cyclohexanol] |  |  |  |  |  | behavioral response in words (Mythimna separata [1]): distinct preference
CC1=CCC(O)(C(C)C)CC1 (single isomer, unassigned; (-)) [(–)-Terpinen-4-ol] | 9.46 | 13.9 | 7.06 | 9.74 | high binding affinities | behavioral response in words (Mythimna separata [1]): repelled
CCCCCCCCCCCC(C)=O [2-Tridecanone] | 7.75 | 9.07 | 5.78 | 6.37 | high affinity | behavioral response in words (Mythimna separata [1]): non-significant attraction
(–)-Isolongifolene |  |  |  |  |  | Ki (MsepCSP8; pH 5.0, read-out: Ki): 46 µM; IC50 (MsepCSP8; pH 5.0, read-out: IC50): 61.6 µM; Ki (MsepCSP8; pH 7.4, read-out: Ki): 17.3 µM; IC50 (MsepCSP8; pH 7.4, read-out: IC50): 24.6 µM
CCC/C=C/C=O [Trans-2-hexenal] | 8.85 | 12.5 | 6.6 | 8.8 | high affinities | behavioral response in words (Mythimna separata [1]): non-significant response
CC1=CC=C(C(C)C)CC1 [α-Terpinene] |  |  |  |  |  | behavioral response (attraction) of females (Mythimna separata [1]): 70%; behavioral response (attraction) of males (Mythimna separata [1]): 66%
CCC/C=C/CO [Trans-2-hexen-1-ol] | 8.46 | 23.8 | 6.31 | 16.7 | bound strongly | 
Cc1ccc(C(C)C)cc1 [4-Isopropyltoluene] | 7.72 | 18 | 5.76 | 12.6 |  | 
CC(=O)/C=C/C1=C(C)CCCC1(C)C [β-Lonone] | 22.8 | 10.3 | 17 | 7.22 | high affinity | 
CCCCCCCCCCCCCC [Tetradecane] | 23.8 | 17.9 | 17.8 | 12.6 |  | 
CCCCCC [Hexane] | 26.3 | 9.69 | 19.6 | 6.8 | bound highly | 
C=C1CC[C@@H]2C[C@H]1C2(C)C [(R)-(+)-β-pinene] |  |  |  |  | high binding affinities | Ki (MsepCSP8; pH 5.0, read-out: Ki): 19.7 µM; IC50 (MsepCSP8; pH 5.0, read-out: IC50): 26.4 µM; Ki (MsepCSP8; pH 7.4, read-out: Ki): 9.73 µM; IC50 (MsepCSP8; pH 7.4, read-out: IC50): 13.9 µM
COC(=O)c1ccccc1 [Methyl benzoate] | 21.2 | 12.5 | 15.8 | 8.8 | bound highly | 
CCCCCC(C)O (stereo not drawn) [2-Heptanol] | 25.6 | 23.8 | 19.1 | 16.7 |  | 
CCCCCCCCCC=O [Decanal] | 31 | 20.4 | 23.2 | 14.3 |  | 
C=C1CC[C@H]2O[C@]2(C)CC[C@@H]2[C@@H]1CC2(C)C [(–)-Caryophyllene oxide] | 10.3 | 19.6 | 7.67 | 13.7 |  | 
CCCCCCCCCCCCCCCCCCC [Nonadecane] | 19.8 | 25.1 | 14.8 | 17.6 |  | 
CCCCCCCC=O [Octanal] | 13.7 | 9.87 | 10.2 | 6.93 | high affinities | behavioral response in words (Mythimna separata [1]): non-significant response
CCCCCCCCCCCCCCCCCCCCC [n-Heneicosane] | 36.5 | 9.59 | 27.2 | 6.73 | bound highly | 
CCCCCCCCCCCCCCCC [Hexadecane] | 10.3 | 14.8 | 7.65 | 10.4 |  | 
CCCCCCCC [Octane] | 15.9 | 37 | 11.8 | 26 |  | 
CCC(C)C=O (stereo not drawn) [2-Methylbutyraldehyde] | 21.4 | 13.8 | 16 | 9.66 | high affinities | 
C=CC(O)CCCCC (stereo not drawn) [1-Octen-3-ol] | 13.2 | 8.25 | 9.88 | 5.79 | bound strongly | 
c1ccc(Nc2cccc3ccccc23)cc1 [1-NPN, N-phenyl-1-naphthylamine, reference compound] |  |  |  |  |  | Kd (MsepCSP8; pH 5.0): 2.93 µM; Kd (MsepCSP8; pH 7.4): 2.41 µM
C=CC(C)=CCC=C(C)C [Ocimene] |  |  |  |  |  | Ki (MsepCSP8; pH 5.0, read-out: Ki): 11.6 µM; IC50 (MsepCSP8; pH 5.0, read-out: IC50): 15.6 µM; Ki (MsepCSP8; pH 7.4, read-out: Ki): 11.7 µM; IC50 (MsepCSP8; pH 7.4, read-out: IC50): 16.7 µM
